Test results from patent US20140206737A1 (Beijing Zhongwei Shennong Chronic Disease Medical Research …, priority 2013, published 2014).
Counter-ions that a name gives are not always drawn.

Tests used:
[1] = system: opioid dependent participants; assay: Treatment of heroin addiction: degree of anxiety by Hamilton Anxiety Scale (HAMA); format: in vivo, human; details: Day 5
Experimental: (§1) 1.1. Subject selection criteria: 60 participants, in the range of 18-50 years of age, male or female, and opioid dependent as diagnosed according to the DSM-IV diagnostic criteria for opioid dependence.
(§2) 1.3. Grouping: 60 cases of participants were randomly divided into two groups according to the order of admission: the test group and the methadone control group.
(§3) The control group used methadone hydrochloride oral medication of 10 mg/10 ml each. Comparison method: according to the heroin-dependent self-restraining degree of 7-10 days, the treatment was designed to be 10 days long for both groups. […] The treatment concluded on day 10. Methadone control group was admitted 50-60 mg methadone on the first day; starting on day 2, the methadone dose was reduced by 10 mg per day each day; starting on day 6, the methadone dose was reduced by 2 mg per day each day. The treatment concluded on day 10. Supplementary drugs used in the two groups included normal doses of clonazepam tablets (clonazopam), alprazolam tablets (Alprazoli) once a day at night.
1.5.3. […]
1.6. Statistical analysis of the two groups: the general characteristics, withdrawal symptoms, and anxiety symptoms of the two groups, were statistically analyzed using the t test, chi-square test and Fisher's Exact Test, using suitable software such as SPSS 7.0. […]

[2] = system: opioid dependent participants; assay: Treatment of heroin addiction: adverse reactions and side effects; details: 10-day treatment
Experimental: as §1, §2, §3
1.5.2. Recordation of adverse reactions: adverse reactions were evaluated in the withdrawal symptom measurement table, using a total of 10 indicators that include: dizziness, syncope, malaise, nausea, vomiting, sweating, dry mouth, drowsiness, blurred vision, disturbance of consciousness. The recordation was done each morning at 9:00.
(§4) 1.6. Statistical analysis of the two groups: the general characteristics, withdrawal symptoms, and anxiety symptoms of the two groups, were statistically analyzed using the t test, chi-square test and Fisher's Exact Test, using suitable software such as SPSS 7.0. The t test was applied to the symptom data of the two groups, and chi-square test or Fisher's Exact Test was applied to the count data.

[3] = system: opioid dependent participants; assay: Treatment of heroin addiction: clinical rating of withdrawal symptoms; format: in vivo, human
Description: as §1
Subject exclusion criteria: candidates with serious heart disease, liver or kidney dysfunction, mental illness, serious bodily weakness, or pregnant or lactating women were excluded.
as §2, §3
1.5.1. Clinical rating used indicators of withdrawal, which has 20 indicators including craving, anxiety, agitation, nausea, vomiting, hot face, chills, or alternating chills and fever, yawning, runny nose, tears, sweating, drowsiness, cutis anserina, tremors, bone and muscle pain, anorexia, abdominal pain, diarrhea, insomnia, and curled position. The rating was done daily on the day before the treatment and on each day during the treatment. The severity of withdrawal symptoms was scored as level 0-4 (five levels in total). Scoring for each participant was done at 9:00 am every day.
as §4

CCC(=O)C(CC(C)N(C)C)(c1ccccc1)c1ccccc1 (stereo not drawn) [Methadone, methadone hydrochloride]
emotional changes measured by HAMA (x ± s) [1]: 8.83 ± 0.45
Adverse Reactions: Abdominal pain ([2]; count, 30 per group): 6
Adverse Reactions: Chills ([2]; count, 30 per group): 7
Adverse Reactions: Diarrhea ([2]; count, 30 per group): 3
Adverse Reactions: Runny nose ([2]; count, 30 per group): 8
Adverse Reactions: Tears ([2]; count, 30 per group): 8
Side effects ([2]; heroin addiction study): dizziness, malaise, nausea, sweating and heart palpitations
withdrawal symptoms (x ± s) ([3]; Before treatment, 20 indicators scored level 0-4, 30 per group): 56.03 ± 1.80
withdrawal symptoms (x ± s) ([3]; Day 1 of treatment): 5.01 ± 0.83
withdrawal symptoms (x ± s) ([3]; Day 2 of treatment): 27.78 ± 1.40
withdrawal symptoms (x ± s) ([3]; Day 3 of treatment): 19.71 ± 1.13
withdrawal symptoms (x ± s) ([3]; Day 4 of treatment): 13.54 ± 1.01
withdrawal symptoms (x ± s) ([3]; Day 5 of treatment): 8.27 ± 0.28
withdrawal symptoms (x ± s) ([3]; Day 6 of treatment): 3.84 ± 0.06
withdrawal symptoms (x ± s) ([3]; Day 7 of treatment): 3.26 ± 0.27
withdrawal symptoms (x ± s) ([3]; Day 8 of treatment): 3.84 ± 0.07
withdrawal symptoms (x ± s) ([3]; Day 9 of treatment): 3.82 ± 0.18
withdrawal symptoms (x ± s) ([3]; Day 10 of treatment): 4.80 ± 0.11
